Like-named read-outs stand apart in the source and are kept apart here. Each block holds one molecule with its values, some of them ahead of it. Where a SMILES comes first, the peptide text is derived from it. Where no end group is shown, it is not given here. [ ]: non-standard residue; d: D form. The star is where a group is joined. FITC = O=C1OC2(c3ccc(O)cc3Oc3cc(O)ccc32)c2ccc(NC(=S)*)cc21; Hyp = O=C(O)[C@@H]1C[C@@H](O)CN1; Ahx = NCCCCCC(=O)O
What was measured:
[1] = target: T1, AMY receptor 1 ECD (RAMP1-CTR ECD fusion protein) (Homo sapiens, UniProt O60894+P30988); experiment: FP competition peptide binding assay with AMY receptor 1 ECD, FITC-AC413(6–25) Y25P probe; conditions: Figure 5e; RAMP1-CTR ECD fusion protein 77 nM, FITC-AC413(6–25) Y25P 10 nM; mean ± SD of N = 3; read-out: pKI Mean ± SD (converted)
T1 construct: pHLsec/hRAMP1.24–111-(GSA)3-hCTR.34–141-H6 (H-pSL005); H6 (His6) (C); made in house; host or cells: HEK293T
Excerpt: (§1) The overall procedures of FP peptide binding assay with receptor ECDs and FITC-labeled peptide probes were previously described. […] A SpectraiD5 (Molecular Devices, San Jose, CA, USA) was used to measure fluorescence polarization/anisotropy. Background (reaction buffer only) was subtracted for anisotropy calculation. For the SpectraiD5, G factor (0.38 for FITC-sCT(22–32) and 0.41 for FITC-AC413(6–25) and FITC-AC413(6–25) Y25P) was used to correct the instrumental bias for anisotropy calculation. The polarization (mP) of the FITC-peptide probes only (No receptor ECD) was set close to 50 mP. For the saturation binding assay, the anisotropy values were re-calculated when total fluorescence intensity was changed by more than 10% as previously described. […] Anisotropy values were used to produce non-linear regression curves with PRISM 5.0 (GraphPad software, San Diego, CA, USA) as previously described. KI indicates affinity values obtained from competition binding assay and it was calculated from the non-linear regression curves of anisotropy by using equations previously described. Concentrations of the FITC-labeled peptide and the total receptor protein and the affinity of the FITC-labeled peptide for the receptor protein were incorporated into the equations for the KI calculation of the competitive peptide ligand. Two technical replicates were used for each receptor concentration in the peptide-binding curve. SEM of the anisotropy values of the two replicates at each receptor concentration were presented as error bars in the representative peptide-binding curves. When the error bars were shorter than the height of the symbol, they were omitted in the representative curves. At least three independent peptide binding experiments were performed to obtain three independent peptide-binding curves. Mean and standard deviation of peptide ligand affinity were calculated from them.

CTR ECD = target: T2, CTR ECD (Homo sapiens, UniProt P30988); experiment: FP competition peptide binding assay with purified CTR ECD, FITC-sCT(22–32) probe; conditions: CTR ECD 500 nM, FITC-sCT(22–32) 10 nM
T2 construct: pHLsec/hCTR.34–141-H6 (H-pSL003); H6 (His6) (C); made in house; host or cells: HEK293T
T2 sequence (P30988 34-141): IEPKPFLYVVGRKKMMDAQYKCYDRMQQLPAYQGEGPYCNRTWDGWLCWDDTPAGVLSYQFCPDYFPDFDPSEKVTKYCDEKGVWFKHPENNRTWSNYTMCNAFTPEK
Excerpt: as §1

[2] = target: T3, AMY receptor 2 ECD (RAMP2-CTR ECD fusion protein) (Homo sapiens, UniProt O60895+P30988); experiment: FP competition peptide binding assay with AMY receptor 2 ECD, FITC-AC413(6–25) Y25P probe; conditions: Figure 5f; RAMP2-CTR ECD fusion protein 67 nM, FITC-AC413(6–25) Y25P 10 nM; mean ± SD of N = 3; read-out: pKI Mean ± SD (converted)
T3 construct: pHLsec/hRAMP2.55–140-(GSA)3-hCTR.34–141-H6 (H-pSL006); H6 (His6) (C); made in house; host or cells: HEK293T
Excerpt: as §1

[3] = target: T4, AMY receptor 3 ECD (RAMP3-CTR ECD fusion protein) (Homo sapiens, UniProt O60896+P30988); experiment: FP competition peptide binding assay with AMY receptor 3 ECD, FITC-AC413(6–25) Y25P probe; conditions: Figure 5g; RAMP3-CTR ECD fusion protein 252 nM, FITC-AC413(6–25) Y25P 10 nM; mean ± SD of N = 3; read-out: pKI Mean ± SD (converted)
T4 construct: pHLsec/hRAMP3.25–112-(GSA)3-hCTR.34–141-H6 (H-pSL001); H6 (His6) (C); made in house; host or cells: HEK293S GnTI−
T4 sequence (O60896+P30988 with tags, fused parts or gaps): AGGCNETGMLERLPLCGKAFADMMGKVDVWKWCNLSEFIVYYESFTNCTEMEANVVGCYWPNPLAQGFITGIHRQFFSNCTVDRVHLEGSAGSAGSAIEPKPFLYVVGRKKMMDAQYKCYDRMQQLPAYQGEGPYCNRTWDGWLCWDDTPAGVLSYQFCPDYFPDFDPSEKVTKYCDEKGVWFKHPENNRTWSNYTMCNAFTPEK
Excerpt: as §1

[4] = system: RAMP3-CTR ECD fusion protein; experiment: FP peptide binding assay of FITC-labeled probes with CTR ECD alone and RAMP3-CTR ECD fusion protein (Figure S1D); design: species or system human; conditions: FP binding with rising receptor ECD concentration
Experimental: HEK293S GnTI^− cells were used to express the RAMP3-CTR ECD fusion protein. The general procedures of receptor ECD expression and purification from HEK293S GnTI^− cells were previously described. HEK293S GnTI^− cells were transiently transfected with the DNA expression vector (H-pSL001) using polyethylenimine (PEI) at 1:1.5 ratio (DNA:PEI, w/w). Transfected cells were incubated for 4 days at 37 °C. All protein purification was performed at 4 °C unless otherwise noted. Cell culture media were collected and dialyzed to dialysis buffer overnight. The next day, dialyzed cell culture media were loaded to IMAC chromatography. Peak fractions from IMAC chromatography were spin-concentrated (MWCO 10 kDa) and injected into SEC. […]
The overall procedures of FP peptide binding assay with receptor ECDs and FITC-labeled peptide probes were previously described. […] A SpectraiD5 (Molecular Devices, San Jose, CA, USA) was used to measure fluorescence polarization/anisotropy. […] For the saturation binding assay, the anisotropy values were re-calculated when total fluorescence intensity was changed by more than 10% as previously described. However, effects of fluorescence intensity changes on the affinity values (KI) obtained from the competition binding assay was reported to be minimum and re-calculation of anisotropy was not applied. […] Mean and standard deviation of peptide ligand affinity were calculated from them. […]

[5] = target: T5, FITC-labeled AC413(6–25) with Y25P mutation (Y25P (stands in the printed letters), FITC-(Ahx) (aminohexanoic acid) on the N-terminus; C-terminal amide); experiment: fluorescence polarisation; saturation binding: FITC-labeled peptide probe (10 nM) with rising receptor ECD concentrations; receptor ECD concentration at half of the maximal anisotropy; conditions: both partners purified
T5 construct: residues 6-25 of AC413, an antagonistic amylin peptide analog, with Y25P; peptide probe of the FP assay with the AMY receptor ECDs; also called FITC-AC413(6–25) Y25P; source: synthetic peptide (Genscript, HPLC-purified)
T5 peptide: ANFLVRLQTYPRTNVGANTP

[6] = Figure 4b experiment set, mean ± SD of N = 3 (N = 4 for sCT(22–32)) independent experiments, read-out: pKI Mean ± SD (converted)
[7] = Figure 1d experiment set, mean ± SD of N = 3 independent experiments, pKI = –log10[KI] (M)

Ki [1]: 123 nM
Ki (CTR ECD; [6]): 9.55e-08 M
Ki [2]: 339 nM
Ki [3]: 117 nM
Molecule: C[C@@H](O)[C@H](NC(=O)[C@H](CC(=O)O)NC(=O)[C@@H](NC(=O)[C@H](CCCNC(=N)N)NC(=O)[C@@H]1CCCN1C(=O)[C@@H](N)Cc1ccc(O)cc1)[C@@H](C)O)C(=O)NCC(=O)N1CCC[C@H]1C(=O)NCC(=O)N[C@H](C(=O)N1C[C@H](O)C[C@H]1C(N)=O)[C@@H](C)O [sCT(22–32) N26D/S29P/P32HYP] (H-YPRTDTGPGT[Hyp]-NH2)

binding for the RAMP3-CTR ECD fusion protein over CTR ECD alone [4]: selective binding
Molecule: {FITC-Ahx}-ANFLVRLQTYPRTNVGANTY-NH2 [FITC-AC413(6–25), FITC-labeled fragment of the antagonistic amylin analog AC413, peptide probe]

Ki [1]: 2570 nM
Ki (CTR ECD; [6]): 2.04e-06 M
Ki (CTR ECD; [7]): 1.78e-06 M
Ki [2]: 2820 nM
Ki [3]: 2570 nM
Molecule: YPRTNTGSGTP-NH2 [sCT(22–32), reference compound]

Ki [1]: 380 nM
Ki (CTR ECD; Figure 3b experiment set, mean ± SD of N = 3 independent experiments, read-out: pKI Mean ± SD (converted)): 2.4e-07 M
Ki (CTR ECD; [7]): 3.16e-07 M
Ki [2]: 468 nM
Ki [3]: 331 nM
Molecule: YPRTDTGPGTP-NH2 [sCT(22–32) N26D/S29P]

Ki [1]: 891 nM
Ki (CTR ECD; [6]): 8.91e-07 M
Ki [2]: 1410 nM
Ki [3]: 1000 nM
Molecule: C[C@@H](O)[C@H](NC(=O)[C@H](CC(N)=O)NC(=O)[C@@H](NC(=O)[C@H](CCCNC(=N)N)NC(=O)[C@@H]1CCCN1C(=O)[C@@H](N)Cc1ccc(O)cc1)[C@@H](C)O)C(=O)NCC(=O)N[C@@H](CO)C(=O)NCC(=O)N[C@H](C(=O)N1C[C@H](O)C[C@H]1C(N)=O)[C@@H](C)O [sCT(22–32) P32HYP] (H-YPRTNTGSGT[Hyp]-NH2)

affinity for the RAMP3-CTR ECD fusion protein compared to FITC-labeled AC413(6–25) [4]: great affinity increase
Molecule: {FITC-Ahx}-ANFLVRLQTYPRTNVGANTP-NH2 [FITC-AC413(6–25) Y25P, FITC-labeled AC413(6–25) with Y25P mutation, probe for AMY receptor ECDs]

receptor ECD concentration that produced a half of the maximal anisotropy with the peptide probe [5]: 67 nM
B1: RAMP2-CTR ECD fusion protein (hRAMP2.55–140-(GSA)3-hCTR.34–141-H6) (receptor, human)
chain: GGTVKNYETAVQFCWNHYKDQMDPIEKDWCDWAMISRPYSTLRDCLEHFAELFDLGFPNPLAERIIFETHQIHFANCSLVQPTFSDGSAGSAGSAIEPKPFLYVVGRKKMMDAQYKCYDRMQQLPAYQGEGPYCNRTWDGWLCWDDTPAGVLSYQFCPDYFPDFDPSEKVTKYCDEKGVWFKHPENNRTWSNYTMCNAFTPEK
notes: human receptor activity-modifying protein 2 (RAMP2), extracellular domain, residues 55-140; linker, printed as (GSA)3; human calcitonin receptor (CTR), extracellular domain, residues 34-141; Secreted from a pHLsec-based vector; also called AMY receptor 2 ECD; RAMP2 ECD-CTR ECD fusion; source: HEK293T, transiently transfected, secreted to cell culture media, purified (IMAC, SEC)

receptor ECD concentration that produced a half of the maximal anisotropy with the peptide probe [5]: 252 nM
B2: RAMP3-CTR ECD fusion protein (hRAMP3.25–112-(GSA)3-hCTR.34–141-H6) (receptor, human)
chain: T4 sequence (O60896+P30988 with tags, fused parts or gaps)
notes: human receptor activity-modifying protein 3 (RAMP3), extracellular domain, residues 25-112; linker, printed as (GSA)3; human calcitonin receptor (CTR), extracellular domain, residues 34-141; Secreted from a pHLsec-based vector; also called AMY receptor 3 ECD; RAMP3 ECD-CTR ECD fusion protein; source: HEK293S GnTI-, transiently transfected (PEI), secreted to cell culture media, purified (IMAC, SEC)

receptor ECD concentration that produced a half of the maximal anisotropy with the peptide probe [5]: 77 nM
B3: RAMP1-CTR ECD fusion protein (hRAMP1.24–111-(GSA)3-hCTR.34–141-H6) (receptor, human)
chain: TTACQEANYGALLRELCLTQFQVDMEAVGETLWCDWGRTIRSYRELADCTWHMAEKLGCFWPNAEVDRFFLAVHGRYFRSCPISGRAVGSAGSAGSAIEPKPFLYVVGRKKMMDAQYKCYDRMQQLPAYQGEGPYCNRTWDGWLCWDDTPAGVLSYQFCPDYFPDFDPSEKVTKYCDEKGVWFKHPENNRTWSNYTMCNAFTPEK
notes: human receptor activity-modifying protein 1 (RAMP1), extracellular domain, residues 24-111; linker, printed as (GSA)3; human calcitonin receptor (CTR), extracellular domain, residues 34-141; Secreted from a pHLsec-based vector; also called AMY receptor 1 ECD; RAMP1 ECD-CTR ECD fusion; source: HEK293T, transiently transfected, secreted to cell culture media, purified (IMAC, SEC)
